# Reference: ChEMBL document CHEMBL1136817, “1,3,4-Trisubstituted pyrrolidine CCR5 receptor antagonists: modifications of the arylpropylpiperidine side chains” (Bioorg Med Chem Lett, 2003)
# Tests used:
# [1] = target: T1, C-C chemokine receptor type 5 (Homo sapiens, UniProt P51681); experiment: (§1) Ability to displace [125I]- labeled MIP-1alpha from CCR5 receptor expressed on CHO cell membrane; assay type: cell membranes
# Target sequence in this assay (P51681 whole entry): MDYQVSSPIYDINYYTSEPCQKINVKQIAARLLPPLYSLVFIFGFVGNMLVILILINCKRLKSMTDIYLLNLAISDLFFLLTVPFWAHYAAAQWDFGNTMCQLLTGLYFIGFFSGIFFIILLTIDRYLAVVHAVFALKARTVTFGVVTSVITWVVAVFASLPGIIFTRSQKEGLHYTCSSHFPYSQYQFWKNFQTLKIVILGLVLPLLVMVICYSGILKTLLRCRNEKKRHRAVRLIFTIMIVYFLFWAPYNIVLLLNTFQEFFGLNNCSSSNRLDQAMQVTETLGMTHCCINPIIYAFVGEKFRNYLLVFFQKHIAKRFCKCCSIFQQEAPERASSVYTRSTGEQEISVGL
# [2] = test system: Human immunodeficiency virus 1; experiment: In vitro antiviral activity against HIV-1 (BAL) in HeLa cells.; assay type: functional
# [3] = Volume of distribution was evaluated in rat; assay type: ADME, organism-based; details: in vivo, read-out: Vdss
# [4] = Oral bioavailability in rat; assay type: ADME, organism-based; details: in vivo
# [5] = Plasma clearance was evaluated in rat; assay type: ADME, organism-based; details: read-out: Clp
# [6] = Half life was evaluated in rat; assay type: ADME, organism-based; details: in vivo
# [7] = target: T1, C-C chemokine receptor type 5; experiment: as §1; assay type: cell membranes; remark: listed apart in the source
# Target sequence in this assay (P51681 whole entry, looked up): as the sequence (P51681 whole entry) above
# [8] = Inhibitory concentration measured by peripheral blood mononuclear cells (BAL) viral assay; assay type: functional, Homo sapiens
# [9] = Half life was evaluated in rhesus; assay type: ADME; details: cercopithecidae, in vivo
# [10] = Volume of distribution was evaluated in dog; assay type: ADME, organism-based, Canis lupus familiaris; details: in vivo, read-out: Vdss
# [11] = Oral bioavailability in Rhesus monkey; assay type: ADME, organism-based, Macaca mulatta; details: in vivo
# [12] = Plasma clearance was evaluated in rhesus; assay type: ADME, organism-based; details: cercopithecidae, read-out: Clp
# [13] = Volume of distribution was evaluated in rhesus; assay type: ADME, organism-based; details: cercopithecidae, in vivo; read-out: Vdss
# [14] = Oral bioavailability in dog; assay type: ADME, organism-based, Canis lupus familiaris; details: in vivo
# [15] = Half life was evaluated in dog; assay type: ADME, organism-based, Canis lupus familiaris; details: in vivo
# [16] = Plasma clearance was evaluated in dog; assay type: ADME, organism-based, Canis lupus familiaris; details: read-out: Clp
# [17] = Inhibitory concentration measured by Peripheral blood mononuclear cells (BAL) viral assay; assay type: functional; details: Homo sapiens
# [18] = Inhibitory concentration by Peripheral blood mononuclear cells assay; assay type: functional; details: Homo sapiens
# [19] = Oral bioavailability; assay type: ADME, organism-based; details: rat, in vivo
# HeLa = experiment: Inhibitory concentration obtained in the HeLa cell anti infectivity assay versus BAL strain; assay type: functional; details: Homo sapiens
# [20] = Human immunodeficiency virus 1, HeLa
SMILES,IC50 [1] [nM],"IC90 [2, 20] [nM]",clearance [5] [mL/min/kg],half-life [6] [h],other results
COP(=O)(CCC1CCN(C[C@H]2CN([C@H](CC3CC3)C(=O)O)C[C@@H]2c2cccc(F)c2)CC1)c1ccccc1 (stereo partly drawn),19,–,–,–,–
O=C(O)[C@@H](CC1CCC1)N1C[C@H](CN2CCC(CCS(=O)(=O)c3ccc(F)cc3)CC2)[C@@H](c2cccc(F)c2)C1,–,0.4,78,0.8,Vd [3]: 1.9 L/kg; bioavailability [4]: 16%; IC95 [7]: 0.2 nM; IC50 [8]: 1.6 nM
O=C(O)[C@@H](CC1CCC1)N1C[C@H](CN2CCC(CCCc3ccccc3)CC2)[C@@H](c2ccccc2)C1,–,–,–,–,IC90 (HeLa): 1.2 nM; IC50 [8]: < 8 nM
COC(=O)C(CCC1CCN(C[C@H]2CN([C@H](CC3CC3)C(=O)O)C[C@@H]2c2cccc(F)c2)CC1)c1ccc(F)cc1 (stereo partly drawn),1.5,33,–,–,–
O=C(O)[C@@H](CC1CC1)N1C[C@H](CN2CCC(CCC3(c4ccc(F)cc4)OCCO3)CC2)[C@@H](c2cccc(F)c2)C1,3.7,100,–,–,–
CC(O)(CCC1CCN(C[C@H]2CN([C@H](CC3CC3)C(=O)O)C[C@@H]2c2cccc(F)c2)CC1)c1ccc(F)cc1 (stereo partly drawn),1.6,1.2,5.4,1.6,Vd [3]: 3.9 L/kg; bioavailability [4]: 10%
O=C(CCC1CCN(C[C@H]2CN([C@@H](C(=O)O)C3CCCCC3)C[C@@H]2c2ccccc2)CC1)c1ccc(F)cc1,1.6,100,–,–,–
O=C(O)[C@@H](CC1CC1)N1C[C@H](CN2CCC(CCP(=O)(O)c3ccccc3)CC2)[C@@H](c2cccc(F)c2)C1,1000,–,–,–,–
O=C(O)[C@@H](CC1CC1)N1C[C@H](CN2CCC(CCC(CO)c3ccc(F)cc3)CC2)[C@@H](c2cccc(F)c2)C1 (stereo partly drawn),4.8,33,–,–,–
O=C(O)[C@@H](C1CCCCC1)N1C[C@H](CN2CCC(CCS(=O)(=O)c3ccc(F)cc3)CC2)[C@@H](c2cccc(F)c2)C1,1.1,0.4,–,–,–
O=C(O)C(CCC1CCN(C[C@H]2CN([C@H](CC3CC3)C(=O)O)C[C@@H]2c2cccc(F)c2)CC1)c1ccc(F)cc1 (stereo partly drawn),51,–,–,–,–

# Continued by falling IC50 [1], values first:
IC50 [1] [nM],"IC90 [2, 20] [nM]",clearance [5] [mL/min/kg],half-life [6] [h],SMILES,other results
0.9,4,–,–,CC(C)[C@H](C(=O)O)N1C[C@H](CN2CCC(CCS(=O)(=O)c3ccc(F)cc3)CC2)[C@@H](c2cccc(F)c2)C1,–
0.8,100,–,–,CC(C)[C@H](C(=O)O)N1C[C@H](CN2CCC(CCSc3ccc(F)cc3)CC2)[C@@H](c2cccc(F)c2)C1,–
0.8,2,32,3.4,O=C(O)[C@@H](CC1CCC1)N1C[C@H](CN2CCC(CCCc3ccc(F)cc3)CC2)[C@@H](c2cccc(F)c2)C1,bioavailability [19]: 16%
0.5,–,32,3.4,O=C(O)[C@@H](CC1CCC1)N1C[C@H](CN2CCC(CCCc3ccccc3)CC2)[C@@H](c2cccc(F)c2)C1,bioavailability [19]: 24%
0.5,33,–,–,CC(C)[C@H](C(=O)O)N1C[C@H](CN2CCC(CCC(F)(F)c3ccc(F)cc3)CC2)[C@@H](c2cccc(F)c2)C1,–
0.5,–,–,–,O=C(O)[C@@H](CC1CCC1)N1C[C@H](CN2CCC(CC[S+]([O-])c3ccc(F)cc3)CC2)[C@@H](c2cccc(F)c2)C1 (stereo in doubt; 30),IC90 [2]: 33 nM
0.4,–,–,–,O=C(O)[C@@H](CC1CCC1)N1C[C@H](CN2CCC(CC[S+]([O-])c3ccc(F)cc3)CC2)[C@@H](c2cccc(F)c2)C1 (stereo in doubt; 31),IC90 [2]: 0.8 nM
0.4,1.2,76,0.9,O=C(O)[C@@H](CC1CC1)N1C[C@H](CN2CCC(CCC(O)c3ccc(F)cc3)CC2)[C@@H](c2cccc(F)c2)C1 (stereo partly drawn),Vd [3]: 3.3 L/kg; bioavailability [4]: 2%; IC95 [17]: 15 nM
0.3,4,–,–,O=C(O)[C@@H](C1CCCCC1)N1C[C@H](CN2CCC(CCC(F)(F)c3ccc(F)cc3)CC2)[C@@H](c2ccccc2)C1,–
0.3,0.4,47.8,1,N#Cc1ccc(CCCC2CCN(C[C@H]3CN([C@H](CC4CCC4)C(=O)O)C[C@@H]3c3cccc(F)c3)CC2)cc1,bioavailability [19]: 7%
0.3,1.6,18,3.1,"O=C(O)[C@@H](CC1CCC1)N1CC(CN2CCC(CCC(F)(F)c3ccc(F)cc3)CC2)[C@@H](c2cccc(F)c2)C1 (single isomer, unassigned)",half-life [9]: 2.4 h; Vd [3]: 2.2 L/kg; bioavailability [11]: 12%; bioavailability [4]: 32%; clearance [12]: 11 mL/min/kg; Vd [13]: 1.8 L/kg; IC95 [17]: 18 nM
0.2,11,–,–,O=C(O)[C@@H](CC1CCC1)N1C[C@H](CN2CCC(CCCc3ccc(C(F)(F)F)cc3)CC2)[C@@H](c2cccc(F)c2)C1,–
0.2,–,–,–,"O=C(O)[C@@H](CC1CCC1)N1CC(CN2CCC(CCC(F)(F)c3ccc(F)cc3)CC2)[C@@H](c2ccccc2)C1 (single isomer, unassigned)",–
0.1,4,–,–,O=C(O)[C@@H](CC1CCC1)N1C[C@H](CN2CCC(CCSc3ccc(F)cc3)CC2)[C@@H](c2cccc(F)c2)C1,–
0.06,0.4,14,7.5,"O=C(O)[C@@H](CC1CC1)N1CC(CN2CCC(CCC(F)(F)c3ccc(F)cc3)CC2)[C@@H](c2cccc(F)c2)C1 (single isomer, unassigned)",half-life [9]: 5.6 h; Vd [3]: 6.1 L/kg; Vd [10]: 3.7 L/kg; bioavailability [11]: 8%; bioavailability [4]: 3.9%; clearance [12]: 17.6 mL/min/kg; Vd [13]: 2.8 L/kg; bioavailability [14]: 37%; half-life [15]: 2.4 h; clearance [16]: 24 mL/min/kg; IC95 [17]: 12 nM; IC95 [18]: < 20 nM
